# US20220315621A1, “COMPOSITIONS AND METHODS FOR TREATING CNS DISORDERS” (priority 2017, published 2022)
# pIC50: −log10 of the molar value. Read-outs that look alike come from different tables or passages of the source.
# Biological target: GABAA receptor (rat brain cortical membranes, [35S]-TBPS binding)
# Conditions: rat brain cortical membranes, 3 nM [35S]-TBPS, in the presence of 5 mM GABA
SMILES,pIC50 (Table I-5),pIC50 (Table I-4),also measured
"COC[C@@]1(O)CC[C@H]2[C@H](CC[C@@H]3[C@@H]2CC[C@]2(C)[C@@H](C(C)=O)C[C@@H]32)C1 [I-AC11, 1-((1S,2aS,2bR,4aR,6R,8aS,8bR,10aS)-6-hydroxy-6-(methoxymethyl)-10a-methylhexadecahydrocyclobuta[a]phenanthren-1-yl)ethan-1-one]",6.00 to 7.00,,
"C[C@@]1(O)CC[C@H]2[C@H](CC[C@@H]3[C@@H]2CC[C@]2(C)[C@H](Nc4ccc(F)cc4)CCC[C@@H]32)C1 [Compound I-11a, (2R,4aS,4bR,6aS,7R,10aS,10bR,12aR)-7-((4-fluorophenyl)amino)-2,6a-dimethyloctadecahydrochrysen-2-ol]",,5.00 to 6.00,
"CC(=O)[C@@H]1C[C@H]2[C@@H]3CC[C@H]4C[C@](C)(O)CC[C@@H]4[C@H]3CC[C@]12C [I-AD8a, 1-((1R,2aS,2bR,4aS,6R,8aS,8bR,10aS)-6-hydroxy-6,10a-dimethylhexadecahydrocyclobuta[a]phenanthren-1-yl)ethan-1-one]",5.00 to 6.00,,
"COC[C@@]1(O)CC[C@H]2[C@H](CC[C@@H]3[C@@H]2CC[C@]2(C)C(=O)[C@H](C)CC[C@@H]32)C1 [Compound I-53, (2R,4aS,4bR,6aR,8R,10aS,10bR,12aS)-8-hydroxy-8-(methoxymethyl)-2,12a-dimethylhexadecahydrochrysen-1(2H)-one]",,5.00 to 6.00,
"CC(=O)[C@H]1C[C@H]2[C@@H]3CC[C@H]4C[C@](C)(O)CC[C@@H]4[C@H]3CC[C@]12C [I-AD8, 1-((1S,2aS,2bR,4aS,6R,8aS,8bR,10aS)-6-hydroxy-6,10a-dimethylhexadecahydrocyclobuta[a]phenanthren-1-yl)ethan-1-one]",5.00 to 6.00,,
"C[C@@]1(O)CC[C@@]2(C)[C@H](CC[C@@H]3[C@@H]2CC[C@]2(C)[C@@H](C(=O)Cn4ccnn4)C[C@@H]32)C1 [Compound I-107a, 1-((1S,2aS,2bR,4aR,6R,8aS,8bS,10aS)-6-hydroxy-6,8a,10a-trimethylhexadecahydrocyclobuta[a]phenanthren-1-yl)-2-(1H-1,2,3-triazol-1-yl)ethan-1-one]",5.00 to 6.00,,
"C[C@@]1(O)CC[C@H]2[C@H](CC[C@@H]3[C@@H]2CC[C@]2(C)C[C@@H](C(=O)Nc4ccccc4)CCC[C@@H]32)C1 [I-BC11, (2R,4aS,4bR,6aR,8S,11aS,11bR,13aR)-2-hydroxy-2,6a-dimethyl-N-phenyloctadecahydro-1H-cyclohepta[a]phenanthrene-8-carboxamide]",,,pIC50 (Table I-6): 5.00 to 6.00
"C[C@@]1(O)CC[C@H]2[C@H](CC[C@@H]3[C@@H]2CC[C@]2(C)[C@@H](Nc4cccc(Cl)c4)CCC[C@@H]32)C1 [Compound I-9, (2R,4aS,4bR,6aS,7S,10aS,10bR,12aR)-7-((3-chlorophenyl)amino)-2,6a-dimethyloctadecahydrochrysen-2-ol]",,7.00 to 8.00,
"COC[C@H]1C[C@H]2[C@@H]3CC[C@@H]4C[C@](C)(O)CC[C@@H]4[C@H]3CC[C@]12C [Compound I-117, (1S,2aS,2bR,4aR,6R,8aS,8bR,10aS)-1-(methoxymethyl)-6,10a-dimethylhexadecahydrocyclobuta[a]phenanthren-6-ol]",6.00 to 7.00,,
"COC[C@@H]1CCCC[C@H]2[C@@H]3CC[C@@H]4C[C@](C)(O)CC[C@@H]4[C@H]3CC[C@]12C [I-BA6a, (2R,4aS,4bR,6aS,7R,11aS,11bR,13aR)-7-(methoxymethyl)-2,6a-dimethyloctadecahydro-1H-cyclohepta[a]phenanthren-2-ol]",,,pIC50 (Table I-6): 5.00 to 6.00
"COC[C@@]1(O)CC[C@H]2[C@@H](CC[C@@H]3[C@@H]2CC[C@]2(C)[C@@H](C(=O)NCc4ccccn4)CCC[C@@H]32)C1 [Compound I-26, (1S,4aS,4bR,6aS,8R,10aS,10bR,12aS)-8-hydroxy-8-(methoxymethyl)-12a-methyl-N-(pyridin-2-ylmethyl)octadecahydrochrysene-1-carboxamide]",,6.00 to 7.00,
"Cc1nnnn1CC(=O)[C@H]1CCC[C@H]2[C@@H]3CC[C@@H]4C[C@](C)(O)CC[C@]4(C)[C@H]3CC[C@]12C [Compound I-20a, 1-((1S,4aS,4bR,6aR,8R,10aS,10bS,12aS)-8-hydroxy-8,10a,12a-trimethyloctadecahydrochrysen-1-yl)-2-(5-methyl-1H-tetrazol-1-yl)ethan-1-one]",,6.00 to 7.00,
"Cc1nnn(CC(=O)[C@H]2CCC[C@H]3[C@@H]4CC[C@@H]5C[C@](C)(O)CC[C@]5(C)[C@H]4CC[C@]23C)n1 [Compound I-20, 1-((1S,4aS,4bR,6aR,8R,10aS,10bS,12aS)-8-hydroxy-8,10a,12a-trimethyloctadecahydrochrysen-1-yl)-2-(5-methyl-2H-tetrazol-2-yl)ethan-1-one]",,6.00 to 7.00,
"C[C@@]1(O)CC[C@H]2[C@@H](CC[C@@H]3[C@@H]2CC[C@]2(C)[C@@H](C(=O)Cn4cc(C#N)cn4)C[C@@H]32)C1 [I-AD10, 1-(2-((1S,2aS,2bR,4aS,6R,8aS,8bR,10aS)-6-hydroxy-6,10a-dimethylhexadecahydrocyclobuta[a]phenanthren-1-yl)-2-oxoethyl)-1H-pyrazole-4-carbonitrile]",5.00 to 6.00,,
"CC(=O)[C@H]1CC[C@H]2[C@@H]3CC[C@@H]4C[C@](C)(O)CC[C@@H]4[C@H]3CC[C@]2(C)C1 [I-R14, 1-((2S,4aS,4bR,6aR,8R,10aS,10bR,12aR)-8-hydroxy-8,12a-dimethyloctadecahydrochrysen-2-yl)ethan-1-one]",,6.00 to 7.00,
"COC[C@@]1(O)CC[C@H]2[C@H](CC[C@@H]3[C@@H]2CC[C@]2(C)[C@@H](OC)CCC[C@@H]32)C1 [I-N11, (2R,4aS,4bR,6aS,7S,10aS,10bR,12aR)-7-methoxy-2-(methoxymethyl)-6a-methyloctadecahydrochrysen-2-ol]",,7.00 to 8.00,
"COC[C@@]1(O)CC[C@H]2[C@H](CC[C@@H]3[C@@H]2CC[C@]2(C)[C@@H](C(=O)Cn4cc(C#N)cn4)C[C@@H]32)C1 [I-AC14, 1-(2-((1S,2aS,2bR,4aR,6R,8aS,8bR,10aS)-6-hydroxy-6-(methoxymethyl)-10a-methylhexadecahydrocyclobuta[a]phenanthren-1-yl)-2-oxoethyl)-1H-pyrazole-4-carbonitrile]",6.00 to 7.00,,
"C[C@@]1(O)CC[C@H]2[C@H](CC[C@@H]3[C@@H]2CC[C@]2(C)[C@@H](Nc4cccc(F)c4)CCC[C@@H]32)C1 [Compound I-12, (2R,4aS,4bR,6aS,7S,10aS,10bR,12aR)-7-((3-fluorophenyl)amino)-2,6a-dimethyloctadecahydrochrysen-2-ol]",,7.00 to 8.00,
"COC[C@@]1(O)CC[C@H]2[C@H](CC[C@@H]3[C@@H]2CC[C@]2(C)[C@@H](C(=O)N4CCCC[C@@H]4C)C[C@@H]32)C1 [I-AC9, ((1S,2aS,2bR,4aR,6R,8aS,8bR,10aS)-6-hydroxy-6-(methoxymethyl)-10a-methylhexadecahydrocyclobutaialphenanthren-1-yl)((S)-2-methylpiperidin-1-yl)methanone]",5.00 to 6.00,,
